Reference: patent publication US20150105252A1, “SUBSTITUTED PYRAZOLES AS HERBICIDES” (E I DU PONT DE NEMOURS AND COMPANY, priority 2013, published 2015)

Columns and labels:
Details in all cases: scale 0 to 100
galium = experiment: Test D postemergence; type: in vivo, Galium aparine
Text: (§1) Seeds of plant species selected from bluegrass (annual bluegrass, Poa annua), blackgrass (Alopecurus myosuroides), canarygrass (littleseed canarygrass, Phalaris minor), chickweed (common chickweed, Stellaria media), galium (catchweed bedstraw, Galium aparine), bromegrass, downy (downy bromegrass, Bromus tectorum), field poppy (Papaver rhoeas), field violet (Viola arvensis), foxtail, green (green foxtail, Setaria viridis), deadnettle (henbit deadnettle, Lamium amplexicaule), ryegrass, Italian (Italian ryegrass, Lolium multiflorum), kochia (Kochia scoparia), lambsquarters (Chenopodium album), oilseed rape (Brassica napus), pigweed (redroot pigweed, Amaranthus retroflexus), chamomile (scentless chamomile, Matricaria inodora), speedwell (bird's-eye speedwell, Veronica persica), barley, spring (spring barley, Hordeum vulgare), wheat, spring (spring wheat, Triticum aestivum), buckwheat, wild (wild buckwheat, Polygonum convolvulus), mustard, wild (wild mustard, Sinapis arvensis), oat, wild (wild oat, Avena fatua), radish, wild (wild radish, Raphanus raphanistrum), windgrass (Apera spica-venti), Russian thistle (Salsola kali), barley, winter (winter barley, Hordeum vulgare), and wheat, winter (winter wheat, Triticum aestivum) were planted into a silt loam soil and treated preemergence with test chemicals formulated in a non-phytotoxic solvent mixture which included a surfactant.
(§2) At the same time, these species were planted in pots containing Redi-Earth® planting medium (Scotts Company, 14111 Scottslawn Road, Marysville, Ohio 43041) comprising spaghnum peat moss, vermiculite, wetting agent and starter nutrients and treated with postemergence applications of the test chemicals formulated in the same manner. Plants ranged in height from 2 to 18 cm (1- to 4-leaf stage). Treated plants and controls were maintained in a controlled growth environment for 14 to 21 days after which time all species were compared to controls and visually evaluated. Plant response ratings, summarized in Table D, are based on a scale of 0 to 100 where 0 is no effect and 100 is complete control. A dash (-) response means no test result.

buckwheat, wild = experiment: Test D postemergence; type: in vivo, Polygonum convolvulus
Text: as §1, §2

chickweed = experiment: Test D preemergence; type: in vivo, Stellaria media
Text: as §1, §2

windgrass = experiment: Test D preemergence; type: in vivo, Apera spica-venti
Text: as §1, §2

lambsquarters = experiment: Test D postemergence; type: in vivo, Chenopodium album
Text: as §1, §2

ryegrass, Italian = experiment: Test D postemergence; type: in vivo, Lolium multiflorum
Text: as §1, §2

radish, wild = experiment: Test D preemergence; type: in vivo, Raphanus raphanistrum
Text: as §1, §2

canarygrass = experiment: Test D postemergence; type: in vivo, Phalaris minor
Text: as §1, §2

`CCc1cc(C(=O)NC(C)C)nn1Cc1ccnc(C(F)(F)F)c1` [Compound 103] was tested, and the “Galium plant response rating” value (galium; Postemergence, 31 g ai/ha) was 55, the “Galium plant response rating” value (galium; Postemergence, 125 g ai/ha) was 75 and the “Galium plant response rating” value (galium; Postemergence, 250 g ai/ha) was 80. The “Galium plant response rating” value (galium; postemergence, 62 g ai/ha) was 70, the “Buckwheat, Wild plant response rating” value (buckwheat, wild; Postemergence, 31 g ai/ha) was 25 and the “Buckwheat, Wild plant response rating” value (buckwheat, wild; Postemergence, 125 g ai/ha) was 55. For the same compound, the “Buckwheat, Wild plant response rating” value (buckwheat, wild; Postemergence, 250 g ai/ha) was 60, the “Buckwheat, Wild plant response rating” value (buckwheat, wild; postemergence, 62 g ai/ha) was 50 and the “Plant response rating, Chickweed” value (chickweed; 31 g ai/ha) was 95. The “Plant response rating, Chickweed” value (chickweed; 62 g ai/ha) was 100, the “Plant response rating, Chickweed” value (chickweed; 125 g ai/ha) was 100 and the “Plant response rating, Chickweed” value (chickweed; 250 g ai/ha) was 100. For the same compound, the “Plant response rating, Windgrass” value (windgrass; 31 g ai/ha) was 15, the “Plant response rating, Windgrass” value (windgrass; 62 g ai/ha) was 80 and the “Plant response rating, Windgrass” value (windgrass; 125 g ai/ha) was 100. The “Plant response rating, Windgrass” value (windgrass; 250 g ai/ha) was 100, the “Lambsquarters plant response rating” value (lambsquarters; Postemergence, 31 g ai/ha) was 35 and the “Lambsquarters plant response rating” value (lambsquarters; Postemergence, 125 g ai/ha) was 40. The “Lambsquarters plant response rating” value (lambsquarters; Postemergence, 250 g ai/ha) was 60, the “Lambsquarters plant response rating” value (lambsquarters; postemergence, 62 g ai/ha) was 30 and the “Ryegrass, Italian plant response rating” value (ryegrass, Italian; Postemergence, 31 g ai/ha) was 5. The “Ryegrass, Italian plant response rating” value (ryegrass, Italian; Postemergence, 125 g ai/ha) was 5, the “Ryegrass, Italian plant response rating” value (ryegrass, Italian; Postemergence, 250 g ai/ha) was 35 and the “Ryegrass, Italian plant response rating” value (ryegrass, Italian; postemergence, 62 g ai/ha) was 5. The “Plant response rating, Radish, Wild” value (radish, wild; 31 g ai/ha) was 95, the “Plant response rating, Radish, Wild” value (radish, wild; 62 g ai/ha) was 100 and the “Plant response rating, Radish, Wild” value (radish, wild; 125 g ai/ha) was 100. The “Plant response rating, Radish, Wild” value (radish, wild; 250 g ai/ha) was 100, the “Canarygrass plant response rating” value (canarygrass; Postemergence, 31 g ai/ha) was 5 and the “Canarygrass plant response rating” value (canarygrass; Postemergence, 125 g ai/ha) was 10. For the same compound, the “Canarygrass plant response rating” value (canarygrass; Postemergence, 250 g ai/ha) was 10 and the “Canarygrass plant response rating” value (canarygrass; postemergence, 62 g ai/ha) was 5.
In the case of `CCCc1cc(C(=O)NCC(F)(F)F)nn1Cc1cc(C(F)(F)F)nn1C` [Compound 138], the “Galium plant response rating” value (galium; Postemergence, 31 g ai/ha) is reported as 80, the “Galium plant response rating” value (galium; Postemergence, 125 g ai/ha) is reported as 100 and the “Galium plant response rating” value (galium; Postemergence, 250 g ai/ha) is reported as 100. For the same compound, the “Galium plant response rating” value (galium; postemergence, 62 g ai/ha) was 80, the “Buckwheat, Wild plant response rating” value (buckwheat, wild; Postemergence, 31 g ai/ha) was 65 and the “Buckwheat, Wild plant response rating” value (buckwheat, wild; Postemergence, 125 g ai/ha) was 70. For the same compound, the “Buckwheat, Wild plant response rating” value (buckwheat, wild; Postemergence, 250 g ai/ha) was 80, the “Buckwheat, Wild plant response rating” value (buckwheat, wild; postemergence, 62 g ai/ha) was 65 and the “Plant response rating, Chickweed” value (chickweed; 31 g ai/ha) was 100. The “Plant response rating, Chickweed” value (chickweed; 62 g ai/ha) was 100, the “Plant response rating, Chickweed” value (chickweed; 125 g ai/ha) was 100 and the “Plant response rating, Chickweed” value (chickweed; 250 g ai/ha) was 100. For the same compound, the “Plant response rating, Windgrass” value (windgrass; 62 g ai/ha) was 45, the “Plant response rating, Windgrass” value (windgrass; 125 g ai/ha) was 100 and the “Plant response rating, Windgrass” value (windgrass; 250 g ai/ha) was 100. The “Lambsquarters plant response rating” value (lambsquarters; Postemergence, 31 g ai/ha) was 80, the “Lambsquarters plant response rating” value (lambsquarters; Postemergence, 125 g ai/ha) was 80 and the “Lambsquarters plant response rating” value (lambsquarters; Postemergence, 250 g ai/ha) was 80. The “Lambsquarters plant response rating” value (lambsquarters; postemergence, 62 g ai/ha) was 80, the “Ryegrass, Italian plant response rating” value (ryegrass, Italian; Postemergence, 31 g ai/ha) was 15 and the “Ryegrass, Italian plant response rating” value (ryegrass, Italian; Postemergence, 125 g ai/ha) was 15. The “Ryegrass, Italian plant response rating” value (ryegrass, Italian; Postemergence, 250 g ai/ha) was 55, the “Ryegrass, Italian plant response rating” value (ryegrass, Italian; postemergence, 62 g ai/ha) was 15 and the “Plant response rating, Radish, Wild” value (radish, wild; 62 g ai/ha) was 100. For the same compound, the “Plant response rating, Radish, Wild” value (radish, wild; 125 g ai/ha) was 100, the “Plant response rating, Radish, Wild” value (radish, wild; 250 g ai/ha) was 100 and the “Canarygrass plant response rating” value (canarygrass; Postemergence, 31 g ai/ha) was 5. The “Canarygrass plant response rating” value (canarygrass; Postemergence, 125 g ai/ha) was 25, the “Canarygrass plant response rating” value (canarygrass; Postemergence, 250 g ai/ha) was 70 and the “Canarygrass plant response rating” value (canarygrass; postemergence, 62 g ai/ha) was 5.
In the case of `CCOc1cc(C(=O)NC2CC2)nn1Cc1ccnc(C(F)(F)F)c1` [Compound 189], the “Galium plant response rating” value (galium; Postemergence, 31 g ai/ha) is reported as 75, the “Galium plant response rating” value (galium; Postemergence, 125 g ai/ha) is reported as 75 and the “Galium plant response rating” value (galium; Postemergence, 250 g ai/ha) is reported as 85. The “Galium plant response rating” value (galium; postemergence, 62 g ai/ha) was 75, the “Buckwheat, Wild plant response rating” value (buckwheat, wild; Postemergence, 31 g ai/ha) was 70 and the “Buckwheat, Wild plant response rating” value (buckwheat, wild; Postemergence, 125 g ai/ha) was 70. The “Buckwheat, Wild plant response rating” value (buckwheat, wild; Postemergence, 250 g ai/ha) was 80, the “Buckwheat, Wild plant response rating” value (buckwheat, wild; postemergence, 62 g ai/ha) was 70 and the “Plant response rating, Chickweed” value (chickweed; 31 g ai/ha) was 95. The “Plant response rating, Chickweed” value (chickweed; 62 g ai/ha) was 100, the “Plant response rating, Chickweed” value (chickweed; 125 g ai/ha) was 100 and the “Plant response rating, Chickweed” value (chickweed; 250 g ai/ha) was 100. The “Plant response rating, Windgrass” value (windgrass; 62 g ai/ha) was 65, the “Plant response rating, Windgrass” value (windgrass; 125 g ai/ha) was 100 and the “Plant response rating, Windgrass” value (windgrass; 250 g ai/ha) was 100. The “Lambsquarters plant response rating” value (lambsquarters; Postemergence, 31 g ai/ha) was 75, the “Lambsquarters plant response rating” value (lambsquarters; Postemergence, 125 g ai/ha) was 80 and the “Lambsquarters plant response rating” value (lambsquarters; Postemergence, 250 g ai/ha) was 90. The “Lambsquarters plant response rating” value (lambsquarters; postemergence, 62 g ai/ha) was 75, the “Ryegrass, Italian plant response rating” value (ryegrass, Italian; Postemergence, 31 g ai/ha) was 10 and the “Ryegrass, Italian plant response rating” value (ryegrass, Italian; Postemergence, 125 g ai/ha) was 20. The “Ryegrass, Italian plant response rating” value (ryegrass, Italian; Postemergence, 250 g ai/ha) was 30, the “Ryegrass, Italian plant response rating” value (ryegrass, Italian; postemergence, 62 g ai/ha) was 10 and the “Plant response rating, Radish, Wild” value (radish, wild; 62 g ai/ha) was 70. For the same compound, the “Plant response rating, Radish, Wild” value (radish, wild; 125 g ai/ha) was 100, the “Plant response rating, Radish, Wild” value (radish, wild; 250 g ai/ha) was 100 and the “Canarygrass plant response rating” value (canarygrass; Postemergence, 31 g ai/ha) was 15. The “Canarygrass plant response rating” value (canarygrass; Postemergence, 125 g ai/ha) was 20, the “Canarygrass plant response rating” value (canarygrass; Postemergence, 250 g ai/ha) was 30 and the “Canarygrass plant response rating” value (canarygrass; postemergence, 62 g ai/ha) was 15.
